One data set deals with OVCAR-4. In words: panel of 60 human tumor cell lines, growth inhibition (Ovarian Cancer). It counts as cell-based. Particulars: for GI50 / IC (TGI) / CC50: Homo sapiens; for CC50: read-out: LC50 (the source's name).
A further data set deals with AML 052308 cells. The experiment in a line: cells. Particulars: read-out: LC50.
The mark [1] stands for this setting: OVCAR-4, Log10 Concentration −4.0.
The mark [2] stands for this setting: OVCAR-4, Log10 Concentration −5.0.
[3] abbreviates: OVCAR-4, Log10 Concentration −6.0.
Where [4] appears, read: OVCAR-4, Log10 Concentration −7.0.
Setting [5] is: OVCAR-4, Log10 Concentration −8.0.

Each structure is given as a SMILES string. Read-outs that look alike come from different tables or passages of the source. A value given as a limit tells only on which side of the number the result lay.

Excerpt for AML 052308 cells: Derivatives were screened for antileukemic activity against AML cells in culture (See FIGS. 1-7).

`C=C1C(=O)O[C@H]2[C@H]1CC/C(COC(=O)NCCN1CCCCC1)=C\CC[C@@]1(C)O[C@@H]21` [JVM 2-13]: the CC50 is 61.6 µM in the data set with KM12; 73.1 µM with SNB-19; 7.75 µM in the data set on COLO 205; over 100 µM with K-562; 28.5 µM with MDA-MB-468; 48.4 µM in the data set with SF-539. For the same molecule, the CC50 in the data set with MALME-3M was 50.6 µM; in the data set with ACHN, 45.6 µM; in the data set on MDA-MB-231/ATCC, 56.5 µM; in the data set on LOX IMVI, 56.2 µM; with NCI/ADR-RES, over 100 µM; with T-47D, 62.4 µM. In the data set with HCC-2998, this molecule had a CC50 of 70.1 µM.

On to `C=C1C(=O)O[C@H]2[C@H]1CC/C(COC(=O)OCCCN1CCCCC1)=C\CC[C@@]1(C)O[C@@H]21` [JVM 2-26], for which, in the data set with OVCAR-4 (OVCAR-4), it took 2.13 µM to inhibit growth by half (GI50), the IC (TGI) is 11.6 µM and the CC50 amounted to 38.6 µM. In addition, the CC50 in the data set with AML 052308 cells came out at 5 µM.

Turning to `C=C1C(=O)O[C@H]2[C@H]1CC/C(COC(=O)NCCCCCCO)=C\CC[C@@]1(C)O[C@@H]21` [JVM 2-31], in the data set with OVCAR-4 (OVCAR-4, NCI five dose), the 50% growth inhibitory concentration (GI50) worked out at 4.01 µM, the IC (TGI) was 19.4 µM and the CC50 was 65.1 µM.

As for `C=C1C(=O)O[C@H]2[C@H]1CC/C(COC(=O)OCCN(C)C)=C\CC[C@@]1(C)O[C@@H]21` [JVM 2-35], in the data set on OVCAR-4 (OVCAR-4, NCI five dose), growth was halved (GI50) at 5.04 µM, the IC (TGI) stood at 18.6 µM and the CC50 worked out at 44.6 µM.

On to `C=C1C(=O)O[C@H]2[C@H]1CC/C(COC(=O)OC)=C\CC[C@@]1(C)O[C@@H]21` [JVM 2-40], for which, in the data set on OVCAR-4 (OVCAR-4, NCI five dose), growth was halved (GI50) at 3.76 µM, the IC (TGI) turned out to be 18.7 µM and the CC50 was 64.1 µM.

Take `C=C1C(=O)O[C@H]2[C@H]1CC/C(COC(=O)N1CCN(C)CC1)=C\CC[C@@]1(C)O[C@@H]21` [JVM 2-44]: the CC50 in the data set with KM12 was 68.9 µM; in the data set on OVCAR-3, 42.3 µM; in the data set on SNB-19 it was over 100 µM; in the data set on COLO 205, 64.8 µM; with K-562 it was over 100 µM; with MDA-MB-468 it was 48.7 µM. Also, the CC50 with SF-539 is 55.1 µM; in the data set with MALME-3M, 65.4 µM; in the data set with ACHN, 52.6 µM; in the data set on MDA-MB-231/ATCC, 67 µM; in the data set with LOX IMVI, 55.9 µM; in the data set with NCI/ADR-RES it was over 100 µM. Further, the CC50 with T-47D stood at 82.3 µM; with HCC-2998, 71.9 µM; in the data set on HCT-116, 48 µM.

Regarding `C=C1C(=O)O[C@H]2[C@H]1CC/C(COC(=O)NCCO)=C\CC[C@@]1(C)O[C@@H]21` [JVM 2-50], the CC50 with OVCAR-3 was 47.3 µM; with SNB-19, over 100 µM; in the data set with COLO 205, 50.7 µM; in the data set on RPMI-8226, over 100 µM; with K-562 it was over 100 µM; with MDA-MB-468 it was 49.1 µM. Further, the CC50 was 56.2 µM with SF-539; 73.3 µM in the data set on MALME-3M; 71.1 µM with ACHN; 75.5 µM with MDA-MB-231/ATCC; 57.1 µM in the data set with LOX IMVI; over 100 µM in the data set on NCI/ADR-RES. Moreover, the CC50 was determined as 87.4 µM in the data set on T-47D and 77.2 µM in the data set with HCC-2998.

`C=C1C(=O)O[C@H]2[C@H]1CC/C(COC(=O)NC)=C\CC[C@@]1(C)O[C@@H]21` [JVM 2-57]: the CC50 is 55.9 µM with KM12; 34.3 µM with OVCAR-3; over 100 µM with SNB-19; 90.3 µM in the data set on RPMI-8226; over 100 µM in the data set with K-562; 49 µM in the data set on MDA-MB-468. Further, the CC50 with SF-539 was 42.9 µM; in the data set on MALME-3M it was 55 µM; with ACHN, 43.3 µM; in the data set with MDA-MB-231/ATCC, 56.2 µM; with LOX IMVI, 43.2 µM; with NCI/ADR-RES, over 100 µM. The values for the CC50 in the data set on T-47D, in the data set on HCC-2998 and in the data set with HCT-116 were 40.2 µM, 61.6 µM and 33.6 µM, respectively.

In the case of `C=C1C(=O)O[C@H]2[C@H]1CC/C(COC(=O)N1CCC(F)(F)CC1)=C\CC[C@@]1(C)O[C@@H]21` [JVM 2-66], the CC50 in the data set on KM12 was 54.5 µM; in the data set with OVCAR-3 it was 9.62 µM; with SNB-19 it was 62.7 µM; in the data set on COLO 205 it was 8.44 µM; in the data set with RPMI-8226, over 100 µM; with K-562, over 100 µM. In addition, the CC50 in the data set with MDA-MB-468 was determined as 11.5 µM; in the data set on SF-539 it was 12.3 µM; with MALME-3M, 21.6 µM; in the data set on MDA-MB-231/ATCC, 30.7 µM; with LOX IMVI, 22.5 µM; in the data set on NCI/ADR-RES it was 69.5 µM. The CC50 in the data set on T-47D was over 100 µM; in the data set on HCC-2998, 57.9 µM; in the data set on HCT-116, 7.75 µM.

For `C=C1C(=O)O[C@H]2[C@H]1CC/C(COC(=O)CCC(=O)N1CCC(C)CC1)=C\CC[C@@]1(C)O[C@@H]21` [JVM 2-70], the CC50 in the data set with KM12 was 56.6 µM; in the data set with OVCAR-3 it was 32.5 µM; with SNB-19, 63.4 µM; with COLO 205 it was 31.9 µM; in the data set with RPMI-8226, over 100 µM; with K-562, over 100 µM. For the same molecule, the CC50 is 53.6 µM in the data set with MALME-3M; 43.5 µM with ACHN; 52.8 µM in the data set on MDA-MB-231/ATCC; 41 µM in the data set on LOX IMVI; 96 µM in the data set with NCI/ADR-RES; over 100 µM with T-47D. The CC50 with HCC-2998 is 61 µM; in the data set with HCT-116, 11.9 µM.

For the molecule `C=C1C(=O)O[C@H]2[C@H]1CC/C(COC(=O)NCCN1CCOCC1)=C\CC[C@@]1(C)O[C@@H]21` [JVM 57, ((1aR,7aS,10aS,10bS,E)-1a-methyl-8-methylene-9-oxo-1a,2,3,6,7,7a,8,9,10a,10b-decahydrooxireno[2′,3′:9,10]-cyclodeca[1,2-b]furan-5-yl)-methyl(2-morpholinoethyl)carbamate], in the data set with OVCAR-4 (OVCAR-4), it took 10.1 µM to inhibit growth by half (GI50), the IC (TGI) was found to be 25.3 µM and the CC50 was 63.4 µM.

In the case of `C=C1C(=O)O[C@H]2[C@H]1CC/C(COC(=O)NCCN1CCCC1)=C\CC[C@@]1(C)O[C@@H]21` [JVM 59, ((1aR,7aS,10aS,10bS,E)-1a-methyl-8-methylene-9-oxo-1a,2,3,6,7,7a,8,9,10a,10b-decahydrooxireno[2′,3′:9,10]cyclodeca[1,2-b]furan-5-yl)methyl-(2-(pyrrolidin-1-yl)ethyl)carbamate], in the data set with OVCAR-4 (OVCAR-4, five dose), the concentration for 50% growth inhibition (GI50) is 10.4 µM, the IC (TGI) was determined as 24.7 µM and the CC50 was determined as 58.5 µM.

Consider `C=C1C(=O)O[C@H]2[C@H]1CC/C(COC(=O)NCCc1ccccn1)=C\CC[C@@]1(C)O[C@@H]21` [JVM 61, ((1aR,7aS,10aS,10bS,E)-1a-methyl-8-methylene-9-oxo-1a,2,3,6,7,7a,8,9,10a,10b-decahydrooxireno[2′,3′:9,10]cyclodeca[1,2-b]furan-5-yl)methyl-(2-(pyridin-2-yl)ethyl)carbamate], for which, in the data set on OVCAR-4 (OVCAR-4), it took 7.17 µM to inhibit growth by half (GI50). Moreover, the IC (TGI) in the data set with OVCAR-4 (OVCAR-4) came to 24.6 µM. Further, in the data set with OVCAR-4 (OVCAR-4), the CC50 is 72.3 µM. In addition, the “Percent Growth” value in the data set with OVCAR-4 (setting [1]) was −65%; in the data set on OVCAR-4 (setting [2]), 42%; in the data set on OVCAR-4 (setting [3]), 99%; in the data set with OVCAR-4 (setting [4]), 96%; with OVCAR-4 (setting [5]) it was 103%.

Take `C=C1C(=O)O[C@H]2[C@H]1CC/C(COC(=O)Nc1n[nH]c(SC)n1)=C\CC[C@@]1(C)O[C@@H]21` [JVM 64, ((1aR,7aS,10aS,10bS,E)-1a-methyl-8-methylene-9-oxo-1a,2,3,6,7,7a,8,9,10a,10b-decahydrooxireno[2′,3′:9,10]cyclodeca[1,2-b]furan-5-yl)methyl-(5-(methylthio)-1H-1,2,4-triazol-3-yl)carbamate]: in the data set on OVCAR-4 (OVCAR-4, NCI five dose), the GI50 was 3.28 µM, the IC (TGI) stood at 19.3 µM and the CC50 is 62.4 µM. Moreover, the CC50 in the data set with AML 052308 cells amounted to 7.4 µM.

Turning to `C=C1C(=O)O[C@H]2[C@H]1CC/C(COC(=S)n1ccnc1)=C\CC[C@@]1(C)O[C@@H]21` [JVM 66], in the data set with OVCAR-4 (OVCAR-4, NCI five dose), the concentration for 50% growth inhibition (GI50) was found to be 19.8 µM, the IC (TGI) turned out to be 90.9 µM and the CC50 is over 100 µM. The CC50 in the data set with AML 052308 cells amounted to 2.6 µM.

`C=C1C(=O)O[C@H]2[C@H]1CC/C(COC(=O)CCC(=O)NCc1ccc(Cl)nc1)=C\CC[C@@]1(C)O[C@@H]21` [JVM 96] had a GI50 in the data set on OVCAR-4 (OVCAR-4) of 10.1 µM. The IC (TGI) with OVCAR-4 (OVCAR-4) came to 23.6 µM. In the data set with OVCAR-4 (OVCAR-4), the CC50 worked out at 55.2 µM. The “Percent Growth” value with OVCAR-4 (setting [1]) is reported as −85%; with OVCAR-4 (setting [2]), 51%; with OVCAR-4 (setting [3]) it was 87%; in the data set on OVCAR-4 (setting [4]), 90%; in the data set on OVCAR-4 (setting [5]) it was 96%.

The values are drawn from patent US9469650B2, “Melampomagnolide B derivatives” (BOARD OF TRUSTEES OF THE UNIVERSITY OF ARKANSAS, priority 2013, dated 2016).
